For four compounds, EC50 results are on record in patent US10947289B2, “Glyco-modified atrial natriuretic peptide” (priority 2013, dated 2021).

*1 amine or outer side, *2 acyl side, *3 side chain or, on linkers, in order; H or OH if unused. Where a SMILES comes first, the peptide text is derived from it. Bridges are numbered along the chain shown (N, C = ends). [ ]: non-standard residue; d: D form. X2 = CC(=O)N[C@H]1[C@H](O[C@H]2[C@H](O)[C@@H](NC(C)=O)[C@H](OC[C@H](N[*:1])C(=O)[*:2])O[C@@H]2CO)O[C@H](CO)[C@@H](O[C@@H]2O[C@H](CO[C@H]3O[C@H](CO)[C@@H](O)[C@H](O)[C@@H]3O[C@@H]3O[C@H](CO)[C@@H](O[C@@H]4O[C@H](CO[C@]5(C(=O)O)C[C@H](O)[C@@H](NC(C)=O)[C@H]([C@H](O)[C@H](O)CO)O5)[C@H](O)[C@H](O)[C@H]4O)[C@H](O)[C@H]3NC(C)=O)[C@@H](O)[C@H](O[C@H]3O[C@H](CO)[C@@H](O)[C@H](O)[C@@H]3O[C@@H]3O[C@H](CO)[C@@H](O[C@@H]4O[C@H](CO[C@]5(C(=O)O)C[C@H](O)[C@@H](NC(C)=O)[C@H]([C@H](O)[C@H](O)CO)O5)[C@H](O)[C@H](O)[C@H]4O)[C@H](O)[C@H]3NC(C)=O)[C@@H]2O)[C@@H]1O

This assay deals with T1, human GC-A (Homo sapiens, UniProt P16066).
T1 construct: expressed in transfected cells; host or cells: CHO cells
T1 sequence (P16066 33-1061): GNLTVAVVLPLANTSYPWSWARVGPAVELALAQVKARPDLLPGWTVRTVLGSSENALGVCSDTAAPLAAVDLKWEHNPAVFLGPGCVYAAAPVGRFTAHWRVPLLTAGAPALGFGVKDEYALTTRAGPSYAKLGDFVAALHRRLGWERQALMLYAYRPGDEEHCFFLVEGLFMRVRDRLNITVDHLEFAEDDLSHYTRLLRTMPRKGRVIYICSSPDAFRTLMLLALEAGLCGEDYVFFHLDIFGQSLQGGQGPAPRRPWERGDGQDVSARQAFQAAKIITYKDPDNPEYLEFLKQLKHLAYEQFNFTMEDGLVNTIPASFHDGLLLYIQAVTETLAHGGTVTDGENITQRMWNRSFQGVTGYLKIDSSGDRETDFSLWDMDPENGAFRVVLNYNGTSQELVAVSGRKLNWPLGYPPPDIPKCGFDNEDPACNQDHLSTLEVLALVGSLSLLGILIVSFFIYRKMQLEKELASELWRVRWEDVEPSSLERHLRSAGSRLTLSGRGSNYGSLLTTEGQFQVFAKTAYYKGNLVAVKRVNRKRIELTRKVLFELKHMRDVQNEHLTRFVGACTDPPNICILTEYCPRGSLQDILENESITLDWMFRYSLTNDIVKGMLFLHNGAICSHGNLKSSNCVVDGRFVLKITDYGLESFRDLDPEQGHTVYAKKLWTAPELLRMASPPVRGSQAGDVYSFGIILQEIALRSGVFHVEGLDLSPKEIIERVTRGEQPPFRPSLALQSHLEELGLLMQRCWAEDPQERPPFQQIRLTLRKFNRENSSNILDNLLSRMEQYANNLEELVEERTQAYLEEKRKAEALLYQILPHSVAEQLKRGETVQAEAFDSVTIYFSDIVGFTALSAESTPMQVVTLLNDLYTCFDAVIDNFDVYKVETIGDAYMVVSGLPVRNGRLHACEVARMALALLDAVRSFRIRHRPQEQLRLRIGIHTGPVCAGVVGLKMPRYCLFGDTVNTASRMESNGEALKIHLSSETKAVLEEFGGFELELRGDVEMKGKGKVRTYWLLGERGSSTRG
Nature of the assay: cGMP elevating activity in CHO/human GC-A cells (Test Example 1). In kind it is cell-based. Here is the method: The cGMP elevating activity of each modified peptide prepared in Example 2 was measured by the following method:
CHO/human GC-A cells, which are CHO cells constitutively expressing human GC-A, were suspended at 2×10^5 cells/ml in α-MEM, 10% FBS, and 1% penicillin-streptomycin, inoculated at 20 μl/well (4×10^3 cells/well) onto a 384-well plate (Corning, 3826), and cultured overnight in a CO2 incubator. On the next day, the medium was removed from this plate, and then, 1.6 mM IBMX/KRB buffer was added thereto at 10 μl/well. The mixture was stirred on a plate shaker and then incubated at room temperature for 10 minutes. […] The mixture was stirred on a plate shaker and then incubated for 15 minutes in a CO2 incubator. Thereafter, a lysis buffer (50 mM phosphate buffer, pH 7.0, and 1% Triton X-100) was added thereto at 5 μl/well. The cells were lysed by stirring for 10 minutes on a plate shaker. Subsequently, the cGMP levels in the cell lysates were measured by use of a cGMP kit (manufactured by Cisbio Bioassays). Specifically, to a 384-well plate (Greiner, 784076), 5 μl/well of a diluent attached to the kit, 5 μl/well of the cell lysate, 5 μl/well of cGMP-d2, and 5 μl/well of anti cGMP-Cryptate were added. The mixture was stirred on a plate shaker and then incubated overnight at 4° C. in the dark, followed by the measurement of homogeneous time-resolved fluorescence using RubyStar (manufactured by BMG LABTECH JAPAN Ltd.). The activity value (T/C) of the test substance at each concentration was calculated when the activity value of a well supplemented with only a solvent was defined as 0 and the activity value of a well supplemented with 1 nM ANP was defined as 1.
With `CC[C@H](C)[C@@H]1NC(=O)[C@H](CCCNC(=N)N)NC(=O)[C@H](CC(=O)O)NC(=O)[C@H](CCSC)NC(=O)[C@H](CCCNC(=N)N)NC(=O)CNC(=O)CNC(=O)[C@H](Cc2ccccc2)NC(=O)[C@@H](NC(=O)[C@H](CO)NC(=O)[C@H](CO)NC(=O)[C@H](CCCNC(=N)N)NC(=O)[C@H](CCCNC(=N)N)NC(=O)[C@H](CC(C)C)NC(=O)[C@@H](N)CC(=O)N[C@@H]2O[C@H](CO)[C@@H](O[C@@H]3O[C@H](CO)[C@@H](O[C@@H]4O[C@H](CO[C@H]5O[C@H](CO)[C@@H](O)[C@H](O)[C@@H]5O[C@@H]5O[C@H](CO)[C@@H](O[C@@H]6O[C@H](CO[C@]7(C(=O)O)C[C@H](O)[C@@H](NC(C)=O)[C@H]([C@H](O)[C@H](O)CO)O7)[C@H](O)[C@H](O)[C@H]6O)[C@H](O)[C@H]5NC(C)=O)[C@@H](O)[C@H](O[C@H]5O[C@H](CO)[C@@H](O)[C@H](O)[C@@H]5O[C@@H]5O[C@H](CO)[C@@H](O[C@@H]6O[C@H](CO[C@]7(C(=O)O)C[C@H](O)[C@@H](NC(C)=O)[C@H]([C@H](O)[C@H](O)CO)O7)[C@H](O)[C@H](O)[C@H]6O)[C@H](O)[C@H]5NC(C)=O)[C@@H]4O)[C@H](O)[C@H]3NC(C)=O)[C@H](O)[C@H]2NC(C)=O)CSSC[C@@H](C(=O)N[C@@H](CC(N)=O)C(=O)N[C@@H](CO)C(=O)N[C@@H](Cc2ccccc2)C(=O)N[C@@H](CCCNC(=N)N)C(=O)N[C@@H](Cc2ccc(O)cc2)C(=O)O)NC(=O)CNC(=O)[C@H](CC(C)C)NC(=O)CNC(=O)[C@H](CO)NC(=O)[C@H](CCC(N)=O)NC(=O)[C@H](C)NC(=O)CNC1=O` [Compound 2-4, (SG-)Asn-hANP(2-28)], the EC50 was determined as 80 pM.

Compound `CC[C@H](C)[C@@H]1NC(=O)[C@H](CCCNC(=N)N)NC(=O)[C@H](CC(=O)O)NC(=O)[C@H](CCSC)NC(=O)[C@H](CCCNC(=N)N)NC(=O)CNC(=O)CNC(=O)[C@H](Cc2ccccc2)NC(=O)[C@@H](NC(=O)[C@H](CO)NC(=O)[C@H](CO)NC(=O)[C@H](CCCNC(=N)N)NC(=O)[C@H](CCCNC(=N)N)NC(=O)[C@H](CC(C)C)NC(=O)[C@@H](N)CO[C@@H]2O[C@H](CO)[C@@H](O[C@@H]3O[C@H](CO)[C@@H](O[C@@H]4O[C@H](CO[C@H]5O[C@H](CO)[C@@H](O)[C@H](O)[C@@H]5O[C@@H]5O[C@H](CO)[C@@H](O[C@@H]6O[C@H](CO[C@]7(C(=O)O)C[C@H](O)[C@@H](NC(C)=O)[C@H]([C@H](O)[C@H](O)CO)O7)[C@H](O)[C@H](O)[C@H]6O)[C@H](O)[C@H]5NC(C)=O)[C@@H](O)[C@H](O[C@H]5O[C@H](CO)[C@@H](O)[C@H](O)[C@@H]5O[C@@H]5O[C@H](CO)[C@@H](O[C@@H]6O[C@H](CO[C@]7(C(=O)O)C[C@H](O)[C@@H](NC(C)=O)[C@H]([C@H](O)[C@H](O)CO)O7)[C@H](O)[C@H](O)[C@H]6O)[C@H](O)[C@H]5NC(C)=O)[C@@H]4O)[C@H](O)[C@H]3NC(C)=O)[C@H](O)[C@H]2NC(C)=O)CSSC[C@@H](C(=O)N[C@@H](CC(N)=O)C(=O)N[C@@H](CO)C(=O)N[C@@H](Cc2ccccc2)C(=O)N[C@@H](CCCNC(=N)N)C(=O)N[C@@H](Cc2ccc(O)cc2)C(=O)O)NC(=O)CNC(=O)[C@H](CC(C)C)NC(=O)CNC(=O)[C@H](CO)NC(=O)[C@H](CCC(N)=O)NC(=O)[C@H](C)NC(=O)CNC1=O` [Compound 2-5, (SG-)Ser-hANP(2-28)] (H-[X2]LRRSSCFGGRMDRIGAQSGLGCNSFRY-OH; disulfide 7-23) registered an EC50 of 82 pM. This EC50 and that of the compound before are within 1.5-fold of each other. `CC[C@H](C)[C@@H]1NC(=O)[C@H](CCCNC(=N)N)NC(=O)[C@H](CC(=O)O)NC(=O)[C@H](CCSC)NC(=O)[C@H](CCCNC(=N)N)NC(=O)CNC(=O)CNC(=O)[C@H](Cc2ccccc2)NC(=O)[C@@H](NC(=O)[C@H](CO)NC(=O)[C@H](CO)NC(=O)[C@H](CCCNC(=N)N)NC(=O)[C@H](CCCNC(=N)N)NC(=O)[C@H](CC(C)C)NC(=O)[C@H](CO)NC(=O)CCOCCOCCOCCOCCNC(=O)[C@H](CC(=O)N[C@@H]2O[C@H](CO)[C@@H](O[C@@H]3O[C@H](CO)[C@@H](O[C@@H]4O[C@H](CO[C@H]5O[C@H](CO)[C@@H](O)[C@H](O)[C@@H]5O[C@@H]5O[C@H](CO)[C@@H](O[C@@H]6O[C@H](CO)[C@H](O)[C@H](O)[C@H]6O)[C@H](O)[C@H]5NC(C)=O)[C@@H](O)[C@H](O[C@H]5O[C@H](CO)[C@@H](O)[C@H](O)[C@@H]5O[C@@H]5O[C@H](CO)[C@@H](O[C@@H]6O[C@H](CO)[C@H](O)[C@H](O)[C@H]6O)[C@H](O)[C@H]5NC(C)=O)[C@@H]4O)[C@H](O)[C@H]3NC(C)=O)[C@H](O)[C@H]2NC(C)=O)NC(=O)CO[C@@H]2O[C@H](CO)[C@@H](O[C@@H]3O[C@H](CO)[C@@H](O[C@@H]4O[C@H](CO[C@H]5O[C@H](CO)[C@@H](O)[C@H](O)[C@@H]5O[C@@H]5O[C@H](CO)[C@@H](O[C@@H]6O[C@H](CO)[C@H](O)[C@H](O)[C@H]6O)[C@H](O)[C@H]5NC(C)=O)[C@@H](O)[C@H](O[C@H]5O[C@H](CO)[C@@H](O)[C@H](O)[C@@H]5O[C@@H]5O[C@H](CO)[C@@H](O[C@@H]6O[C@H](CO)[C@H](O)[C@H](O)[C@H]6O)[C@H](O)[C@H]5NC(C)=O)[C@@H]4O)[C@H](O)[C@H]3NC(C)=O)[C@H](O)[C@H]2NC(C)=O)CSSC[C@@H](C(=O)N[C@@H](CC(N)=O)C(=O)N[C@@H](CO)C(=O)N[C@@H](Cc2ccccc2)C(=O)N[C@@H](CCCNC(=N)N)C(=O)N[C@@H](Cc2ccc(O)cc2)C(=O)O)NC(=O)CNC(=O)[C@H](CC(C)C)NC(=O)CNC(=O)[C@H](CO)NC(=O)[C@H](CCC(N)=O)NC(=O)[C@H](C)NC(=O)CNC1=O` [Compound 2-21, AG(9)-(AG(9)-)Asn-PEG(3)-hANP(1-28)] gave an EC50 of 97 pM. This EC50 and that of the compound before are within 1.5-fold of each other. Turning to `CC[C@H](C)[C@@H]1NC(=O)[C@H](CCCNC(=N)N)NC(=O)[C@H](CC(=O)O)NC(=O)[C@H](CCSC)NC(=O)[C@H](CCCNC(=N)N)NC(=O)CNC(=O)CNC(=O)[C@H](Cc2ccccc2)NC(=O)[C@@H](NC(=O)[C@H](CO)NC(=O)[C@H](CO)NC(=O)[C@H](CCCNC(=N)N)NC(=O)[C@H](CCCNC(=N)N)NC(=O)[C@H](CC(C)C)NC(=O)[C@H](CO)NC(=O)CCOCCOCCOCCOCCNC(=O)[C@H](CC(=O)N[C@@H]2O[C@H](CO)[C@@H](O[C@@H]3O[C@H](CO)[C@@H](O[C@@H]4O[C@H](CO[C@H]5O[C@H](CO)[C@@H](O)[C@H](O)[C@@H]5O[C@@H]5O[C@H](CO)[C@@H](O)[C@H](O)[C@H]5NC(C)=O)[C@@H](O)[C@H](O[C@H]5O[C@H](CO)[C@@H](O)[C@H](O)[C@@H]5O[C@@H]5O[C@H](CO)[C@@H](O)[C@H](O)[C@H]5NC(C)=O)[C@@H]4O)[C@H](O)[C@H]3NC(C)=O)[C@H](O)[C@H]2NC(C)=O)NC(=O)CO[C@@H]2O[C@H](CO)[C@@H](O[C@@H]3O[C@H](CO)[C@@H](O[C@@H]4O[C@H](CO[C@H]5O[C@H](CO)[C@@H](O)[C@H](O)[C@@H]5O[C@@H]5O[C@H](CO)[C@@H](O)[C@H](O)[C@H]5NC(C)=O)[C@@H](O)[C@H](O[C@H]5O[C@H](CO)[C@@H](O)[C@H](O)[C@@H]5O[C@@H]5O[C@H](CO)[C@@H](O)[C@H](O)[C@H]5NC(C)=O)[C@@H]4O)[C@H](O)[C@H]3NC(C)=O)[C@H](O)[C@H]2NC(C)=O)CSSC[C@@H](C(=O)N[C@@H](CC(N)=O)C(=O)N[C@@H](CO)C(=O)N[C@@H](Cc2ccccc2)C(=O)N[C@@H](CCCNC(=N)N)C(=O)N[C@@H](Cc2ccc(O)cc2)C(=O)O)NC(=O)CNC(=O)[C@H](CC(C)C)NC(=O)CNC(=O)[C@H](CO)NC(=O)[C@H](CCC(N)=O)NC(=O)[C@H](C)NC(=O)CNC1=O` [Compound 2-22, AG(7)-(AG(7)-)Asn-PEG(3)-hANP(1-28)], a half-maximal response (EC50) required 80 pM. The EC50 values of the last two compounds are within 1.5-fold of each other.
